These results are taken from the METLIN SMRT retention time set (Domingo-Almenara et al. 2019).

The structures appear in SMILES notation.

The nature of this data set: gradient 5% acetonitrile 3 min, to 50% in 2 min, to 85% in 15 min, held 3 min, 100 µL/min. Particulars: column: Zorbax Extend-C18 2.1 x 50 mm; eluents: water / acetonitrile, 0.1% formic acid. A digest of the protocol: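 Retention times of pure standards were taken from adduct peaks that were selected by computer and manually inspected. Over 3 months, mixtures of ~100 molecules were run by HPLC–quadrupole time-of-flight mass spectrometry in positive and negative ionization mode. The Zorbax Extend-C18 column (2.1 × 50 mm, 1.8 μm) ran at 100 μL/min in water and acetonitrile, each containing 0.1% formic acid, with 40 μL dead volume and 900 μL dwell volume.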
With `CC(C)CN1C(=O)c2ccccc2C(C(=O)N2CCN(c3ccccn3)CC2)C1c1cccs1` (stereo not drawn), the RP-LC retention time is 674 s.
The figure for `COc1cccc(CNC(=O)Cn2c(=O)cc(-c3nc(C4CC4)no3)c3ccccc32)c1` is 902 s.
The value for `COc1ccc2[nH]c3c(C)c4ccncc4c(C)c3c2c1` was 658 s; that for `O=C(c1c(OCC2CC2)cc(=O)n2c1CCCCC2)N1CCN(c2ccccn2)CC1` was 563 s.
As to `CS(=O)(=O)N1CCCC1C(=O)Nc1nc(-c2cc(Cl)sc2Cl)cs1` (stereo not drawn), the RP-LC retention time was found to be 993 s.
For `Cc1ccc(NC(=O)Cn2nc(N3CCC(C)CC3)c3ccccc3c2=O)c(C)c1`, the RP-LC retention time came out at 1160 s.
The value for `Cc1ccsc1CCNC(=O)C1CCN(S(=O)(=O)c2c(C)nn(-c3ccccc3)c2C)CC1` was 955 s.
The figure for `COc1ccc(C2Cn3cnc(C(=O)N4CCC(C(=O)NCC5CC5)CC4)c3CO2)cc1` (stereo not drawn) is 649 s; for `COc1cccc(CNC2=NCCNC23CCN(S(=O)(=O)c2ccccc2)CC3)c1` it is 678 s; for `Cc1ccc(-c2noc3ncnc(N4CCN(c5ccccn5)CC4)c23)cc1` it is 690 s.
The value for `CN(C(=O)C(=O)Nc1ccc2nc3n(c(=O)c2c1)CCCCC3)c1ccccc1F` was 746 s; that for `CCCCOc1ccc(CNC(=O)CN2CC=C(c3cnn(-c4ccccc4)c3)CC2)cc1` was 826 s; that for `Cc1cccc(Cl)c1NC(=O)Cn1ncc2c(N3CCN(c4ccccn4)CC3)ncnc21` was 593 s.
As for `COc1ccc(C(=O)N2CCN(c3ccc(=O)n(-c4cccc(Cl)c4)n3)CC2)cc1OC`, the RP-LC retention time was 784 s.
`Cc1cc(C)n(-c2nc(C)c(C)c(=O)n2CC(=O)N2CCCc3ccccc32)n1` showed an RP-LC retention time of 907 s.
The value for `COc1cccc(NC(=O)C2CCN(C(=O)C3Sc4ccccc4NC3=O)CC2)c1` (stereo not drawn) was 752 s; that for `CS(=O)(=O)N1CCC(C(=O)Nc2nnc(SCc3ccccn3)s2)CC1` was 554 s.
The value for `CCOc1cc(C(=O)NC(C)C(=O)Nc2nc3ccccc3[nH]2)cc(OCC)c1OCC` (stereo not drawn) was 745 s; that for `Cc1cc(C)cc(NS(=O)(=O)c2cc3c4c(c2)CCC(=O)N4CCC3)c1` was 874 s.
The value for `Cc1ccc(CN2C(=O)CN(S(C)(=O)=O)CC2(C)C(=O)NCc2ccc(Cl)cc2)cc1` (stereo not drawn) was 906 s.
`CCOc1ccc(NC(=O)Cn2cnc3nc(N4CCCC(C(=O)NC(C)C)C4)sc3c2=O)cc1` (stereo not drawn) returned an RP-LC retention time of 698 s.
The figure for `COCCNc1c(-c2cccc(F)c2)nc2sc(C(=O)N(C)C)c(C)n12` is 742 s; for `COc1ccc(-c2nnc3sc(-c4ccc(N(C)C)cc4)nn23)cc1` it is 1200 s.
The value for `CCCC(NC(=O)c1cccc(N(C)C)c1)C(=O)Nc1nc2ccccc2[nH]1` (stereo not drawn) was 667 s; that for `CCCS(=O)(=O)N1CC(=O)N(c2cccc(Cl)c2C)C(C)(C(=O)NC2CCCC2)C1` (stereo not drawn) was 946 s.
The value for `COC(=O)C1=CN(c2ccc(OC)c(Cl)c2)c2ccc(F)cc2S1(=O)=O` was 886 s.
In turn, `O=S(=O)(c1ccc(-c2nnc(C3CC3)o2)o1)N1CCN(c2ccc(F)cc2)CC1` registered an RP-LC retention time of 981 s.
The figure for `CCN(CC)C(=O)c1ccc(-c2nc3cc(NS(=O)(=O)c4ccc(C)c(C)c4)ccc3n2C)cc1` is 726 s; for `Cc1ccccc1NC(=O)Cn1cnc2c(c1=O)CCCC2` it is 662 s.
`COc1ccc(-c2noc(Cc3nnc(-c4cc(C)cc(C)c4)o3)n2)cc1`: the RP-LC retention time was 1110 s.
The figure for `Cc1nc(-c2ccc(N3CCN(C(=O)c4cccc(C#N)c4)CC3)nc2)sc1C` is 825 s; for `CCOc1ccc(C(=O)N2C[C@@H]3C[C@H]2C[C@@H]3NC(=O)c2cccs2)cc1` it is 758 s.
`Cc1nn(CC(=O)NCC2CCN(Cc3ccc(Cl)cc3)CC2)c(=O)c2noc(C)c12` had an RP-LC retention time of 617 s.
The figure for `O=C(N[C@H](Cc1ccccc1)C(=O)NCc1cscn1)c1cccc(F)c1` is 762 s; for `CCc1nc(-c2ccc(C(=O)N3CCN(c4ncccn4)CC3)cc2)cs1` it is 843 s; for `Cc1nc2c([nH]1)CCN(C(=O)c1ccc(NC(=O)c3ccccc3-c3ccccc3)cc1)c1ccccc1-2` it is 795 s.
The figure for `CC(C)c1cc(C(=O)Nc2ccc(Cl)cc2)no1` is 1080 s; for `O=C(c1ccc([N+](=O)[O-])o1)N1CCN(C(=O)C2CC2c2cccs2)CC1` (stereo not drawn) it is 752 s.
The value for `O=C(Cc1cccc2ccccc12)NCCOc1ccc(F)cc1` was 860 s.
The compound `Cc1nc(NCc2ccco2)sc1C(=O)Nc1cccc(C(F)(F)F)c1` had an RP-LC retention time of 887 s.
The figure for `CCSc1ccccc1C(=O)Nc1nnc(Cc2cccs2)o1` is 764 s; for `CCOC(=O)c1nc(NC(C)c2ccccc2)c2ccccc2n1` (stereo not drawn) it is 794 s; for `CCN1CCN(Cc2ccc(NC3=NS(=O)(=O)C(c4ccc(OC)cc4)=C3C)cc2)CC1` it is 622 s.
The figure for `CCOCN(C(=O)Cn1c(COC)nc2ccccc21)c1c(C)cccc1CC` is 874 s; for `CCCNC(=O)CCNc1c(-c2cccc(F)c2)nc2cnccn12` it is 650 s; for `COc1ccc(CN2CCC3(CC2)CC(C)(O)CCO3)c(OC)c1` (stereo not drawn) it is 607 s.
The value for `Cc1cc(C)n(CCNC(=O)CSc2ccc(F)cc2)n1` was 675 s.
Consider `Cc1ccccc1Nc1c(-c2cccc(Cl)c2)nc2cnccn12`, for which the RP-LC retention time worked out at 1000 s.
The figure for `COc1cc(S(N)(=O)=O)c(OC)cc1N` is 616 s; for `Cc1cc2c(cc1S(=O)(=O)N1CCCC1C(=O)NCCc1ccccc1)OC(C)C(=O)N2` (stereo not drawn) it is 792 s.
The figure for `O=C(Nc1cccc(F)c1)N1CCCC1c1nc(-c2cccc(F)c2)no1` (stereo not drawn) is 994 s; for `O=C(Cn1c(=O)n(Cc2cccnc2)c(=O)c2ncccc21)c1ccc2c(c1)CCCC2` it is 630 s; for `O=C(Nc1ccc(F)c(Cl)c1)N1CCC(n2cnc3ccc(F)cc3c2=O)CC1` it is 860 s.
The compound `CCCCNC(=O)CCC(=O)Nc1ccc2nc(N3CCN(C)CC3)cc(C)c2c1` showed an RP-LC retention time of 520 s.
The value for `O=C(COc1ccc(F)cc1)NC1(c2nc(-c3ccncc3)no2)CCCCC1` was 934 s; that for `CCc1ccc2c(c1)cc(S(=O)(=O)c1ccccc1)c(=O)n2CC(=O)NCCCOC` was 808 s; that for `O=C(Nc1nccs1)C1CCN(C(=O)Cn2ccc3ccccc32)CC1` was 719 s.
Take `CCCc1nc2cccnc2n1C1CCN(C(=O)COc2ccccc2)C1` (stereo not drawn): the RP-LC retention time was found to be 630 s.
In turn, `CCOc1ccccc1CNC(=O)CN1C(=O)CSc2cccn2-c2ccccc21` displayed an RP-LC retention time of 962 s.
The figure for `Cc1ccc(-n2nc3c(N4CCCC(C(=O)NCCCN5CCCC5=O)C4)nnc(C)c3c2C)cc1` (stereo not drawn) is 627 s; for `COc1c(C)c2c(c(O)c1C/C=C(\C)CCC(=O)O)C(=O)OC2` it is 800 s; for `Cc1ccc(S(=O)(=O)N2CCC(C(=O)NCc3csc(-c4ccccc4)n3)CC2)cc1C` it is 989 s.
The value for `CN1C(=O)c2cc(C(=O)NCc3ccc(F)cc3)nn2CC1(C)C(=O)NC1CCCCCC1` (stereo not drawn) was 840 s; that for `Cc1ccc(CNC(=O)C2CCCN(S(=O)(=O)c3c[nH]c(C(=O)N4CCCC4)c3)C2)cc1` (stereo not drawn) was 762 s; that for `O=C1CCCCC(C(=O)N2CCc3ccccc32)N1` (stereo not drawn) was 726 s.
The figure for `CCCN1C(=O)Cc2c(C)nc(-c3cccc(F)c3)nc21` is 1090 s.
Regarding `Cc1ccc(C)c(S(=O)(=O)N2CCC3(CC2)NCCN=C3NCc2ccccc2F)c1`, the RP-LC retention time was 757 s.
The value for `CCc1nnc(-c2cn(CC(=O)NC3CCCCCC3)c3ccccc23)o1` was 790 s; that for `COc1ccc(CCNC(=O)CN2C(=O)NC3(CCCCC3)C2=O)cc1OC` was 691 s; that for `CCc1cccc(N2C(=O)CN(S(=O)(=O)CC)CC2(C)C(=O)NCc2ccccc2)c1` (stereo not drawn) was 856 s.
`O=C(Cn1nc2c(N3CCCCCC3)nccn2c1=O)NC1CCCCC1` returned an RP-LC retention time of 681 s.
The value for `O=C(Cc1ccc(F)cc1)N1CCN(c2nc(CN3CCOCC3)cs2)CC1` was 616 s; that for `O=C(Nc1cnn(-c2ncc(N3CCSCC3)cn2)c1)NC1CCCCC1` was 759 s; that for `Cc1ccc(CN2CCN(C3CCN(C(=O)Nc4ccc5c(c4)OCO5)CC3)C(=O)C2=O)cc1` was 696 s.
The value for `CNC(=O)C(=O)NCC1CCN(S(C)(=O)=O)CC1` was 541 s; that for `CCn1cnc2cc(-c3noc(CNC(=O)c4ccc(C)cc4)n3)ccc21` was 654 s; that for `CN(C)CCOc1ccc2c(c1)C(=O)/C(=C\c1ncc([N+](=O)[O-])n1C)C2` was 695 s.
`CCC(NC(=O)C1CCN(c2cnc3nccnc3c2)CC1)c1cccs1` (stereo not drawn) gave an RP-LC retention time of 702 s.
